Data on 7 compounds can be found in PubChem BioAssay (NCI).

Some test systems named below: KM12 colon; OVCAR-8 ovarian; HT29 colon; LOX IMVI melanoma; MALME-3M melanoma; RPMI-8226 leukemia; SK-MEL-28 melanoma; COLO 205 colon; SK-MEL-2 melanoma; MDA-MB-231 breast; UO-31 renal; NCI-H460 lung; IGROV1 ovarian; SK-OV-3 ovarian; SF-295 CNS; DU-145 prostate; SW-620 colon; UACC-62 melanoma; NCI/ADR-RES ovarian; UACC-257 melanoma.
Holding throughout (assay): NCI anticancer screen, dose series, 48 h

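Five compound concentrations were applied to cells in 96-well plates for 48 hours; endpoints were derived by simple linear interpolation of the resulting dose-response curve. TGI: concentration producing complete growth inhibition.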

For `c1ccc2c(c1)ncn2CCn1ccnc1`, the TGI in the assay on KM12 colon, with OVCAR-8 ovarian, in the assay on HT29 colon, with LOX IMVI melanoma, in the assay on MALME-3M melanoma and in the assay on RPMI-8226 leukemia was more than 100 µM in each case. Also, the TGI in the assay on SK-MEL-28 melanoma, in the assay on COLO 205 colon, with SK-MEL-2 melanoma, in the assay on MDA-MB-231 breast, in the assay with UO-31 renal and in the assay with NCI-H460 lung was more than 100 µM throughout. Also, the TGI in the assay on IGROV1 ovarian, in the assay on SK-OV-3 ovarian, in the assay with SF-295 CNS, in the assay on DU-145 prostate, with SW-620 colon and in the assay on UACC-62 melanoma was more than 100 µM throughout. The same compound gave a TGI in the assay on NCI/ADR-RES ovarian of more than 100 µM.

For the compound `CSC1=N/C(=C\c2ccccc2)C(=O)N1CN1CCOCC1`, the TGI is more than 100 µM with KM12 colon; more than 100 µM in the assay with OVCAR-8 ovarian; 78.5 µM with HT29 colon; more than 100 µM in the assay with LOX IMVI melanoma; more than 100 µM in the assay on MALME-3M melanoma; more than 100 µM in the assay on RPMI-8226 leukemia. Also, the TGI in the assay on SK-MEL-28 melanoma, in the assay on COLO 205 colon, in the assay with SK-MEL-2 melanoma, in the assay with MDA-MB-231 breast, in the assay with UO-31 renal and in the assay on IGROV1 ovarian was more than 100 µM throughout. The TGI with SK-OV-3 ovarian, in the assay on SF-295 CNS, with DU-145 prostate, in the assay on SW-620 colon, with UACC-62 melanoma and with NCI/ADR-RES ovarian was more than 100 µM throughout.

Consider `Clc1ccc(/C=C/c2nc(-c3ccc(Cl)cc3)cn3c2nc2ccccc23)cc1`, for which the TGI in the assay on KM12 colon, with HT29 colon, in the assay with LOX IMVI melanoma, in the assay with MALME-3M melanoma, in the assay on RPMI-8226 leukemia and with SK-MEL-28 melanoma was more than 100 µM in each case. Further, the TGI with COLO 205 colon, in the assay with SK-MEL-2 melanoma, in the assay on MDA-MB-231 breast, in the assay on UO-31 renal, in the assay on NCI-H460 lung and in the assay with IGROV1 ovarian was more than 100 µM throughout. Further, the TGI in the assay with SK-OV-3 ovarian, with DU-145 prostate, with SW-620 colon, in the assay with UACC-62 melanoma, in the assay with UACC-257 melanoma and in the assay on NCI/ADR-RES ovarian was more than 100 µM throughout.

Turning to `O=CN1CCN(C(=O)c2ccc(Cl)cc2)C1=S`, the TGI in the assay with KM12 colon is 25.2 µM; in the assay on OVCAR-8 ovarian, 31.3 µM; in the assay on HT29 colon it was 33 µM; in the assay with LOX IMVI melanoma, 24.5 µM; in the assay on MALME-3M melanoma, 41.8 µM; in the assay on RPMI-8226 leukemia it was 17.1 µM. Further, the TGI with SK-MEL-28 melanoma came out at 39.6 µM; in the assay on COLO 205 colon, 41.9 µM; in the assay on SK-MEL-2 melanoma it was 36 µM; with MDA-MB-231 breast, 34.5 µM; in the assay on NCI-H460 lung it was 52 µM; in the assay with IGROV1 ovarian, 28.5 µM. The TGI came out at 74.6 µM in the assay with SK-OV-3 ovarian; 76 µM in the assay with SF-295 CNS; 29.1 µM in the assay on DU-145 prostate; 36.5 µM in the assay on SW-620 colon; 29.3 µM with UACC-62 melanoma; 33.7 µM with UACC-257 melanoma. Further, in the assay with NCI/ADR-RES ovarian, the TGI is more than 100 µM.

For `C=CCN1C(=O)/C(=C/c2ccccc2)N=C1SC1OC(COC(C)=O)C(OC(C)=O)C(OC(C)=O)C1OC(C)=O` (stereo not drawn), the TGI was more than 100 µM in the assay with KM12 colon; 95.5 µM with OVCAR-8 ovarian; more than 100 µM in the assay on HT29 colon; more than 100 µM with LOX IMVI melanoma; 62.4 µM in the assay on MALME-3M melanoma; more than 100 µM with RPMI-8226 leukemia. Besides, the TGI was 76.6 µM in the assay with SK-MEL-28 melanoma; 48.8 µM in the assay with SK-MEL-2 melanoma; 47.7 µM in the assay with MDA-MB-231 breast; more than 100 µM in the assay with NCI-H460 lung; 91.1 µM in the assay with IGROV1 ovarian; more than 100 µM in the assay on SK-OV-3 ovarian. The TGI in the assay with SF-295 CNS is more than 100 µM; with DU-145 prostate, 71.6 µM; in the assay with SW-620 colon, more than 100 µM; in the assay on UACC-62 melanoma, 52.4 µM; in the assay on UACC-257 melanoma it was more than 100 µM; in the assay on NCI/ADR-RES ovarian it was 69.4 µM.

On to `Nc1nc(NNc2ccccc2F)cc(=O)[nH]1`, for which the TGI in the assay with KM12 colon, in the assay with OVCAR-8 ovarian, in the assay with HT29 colon, in the assay with LOX IMVI melanoma, in the assay on MALME-3M melanoma and in the assay on RPMI-8226 leukemia was more than 100 µM each time. Besides, the TGI in the assay with SK-MEL-28 melanoma, in the assay on COLO 205 colon, in the assay with MDA-MB-231 breast, with UO-31 renal, with NCI-H460 lung and in the assay on IGROV1 ovarian was more than 100 µM throughout. For the same compound, the TGI in the assay with SF-295 CNS, in the assay on DU-145 prostate, in the assay with SW-620 colon, in the assay on UACC-257 melanoma and in the assay on NCI/ADR-RES ovarian was more than 100 µM throughout.

Regarding `COC(=N)c1ncn(Cc2ccccc2)c1N`, the TGI in the assay with KM12 colon, in the assay with OVCAR-8 ovarian, in the assay with HT29 colon, in the assay with LOX IMVI melanoma, in the assay on MALME-3M melanoma and with RPMI-8226 leukemia was more than 100 µM each time. For the same compound, the TGI in the assay with SK-MEL-28 melanoma, in the assay on COLO 205 colon, with SK-MEL-2 melanoma, in the assay with MDA-MB-231 breast, with NCI-H460 lung and in the assay with IGROV1 ovarian was more than 100 µM throughout. Moreover, the TGI with SK-OV-3 ovarian, in the assay with SF-295 CNS, with DU-145 prostate, in the assay on SW-620 colon, with UACC-62 melanoma and with UACC-257 melanoma was more than 100 µM in each case. In the assay with NCI/ADR-RES ovarian, this compound displayed a TGI of more than 100 µM.
